Test results: ChEMBL document CHEMBL1201862, “PubChem BioAssay data set” (2004)
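48-hour exposure; five concentrations; linearly interpolated endpoints. GI50 = concentration required for 50% inhibition of growth.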 The source made the active and inactive calls. Rule as the data show it: active = GI50 up to about 1.1 µM and inactive = higher.

Assays:
Experiment in all cases: NCI-60 cell line screen, 48 h
A498 = test system: A498
A549 = test system: A549
BT-549 = test system: BT-549
CAKI-1 = test system: CAKI-1
DU-145 = test system: DU-145
HCT-116 = test system: HCT-116
HCT-15 = test system: HCT-15
HT-29 = test system: HT-29
IGROV-1 = test system: IGROV-1
MOLT-4 = test system: MOLT-4
NCI-H23 = test system: NCI-H23
NCI/ADR-RES = test system: NCI/ADR-RES
OVCAR-3 = test system: OVCAR-3
OVCAR-4 = test system: OVCAR-4
OVCAR-8 = test system: OVCAR-8
SF-268 = test system: SF-268
SF-295 = test system: SF-295
SK-OV-3 = test system: SK-OV-3
SN12C = test system: SN12C
HOP-92 = test system: HOP-92

O=C(Nc1ccc(Br)c2ccccc12)c1ccc2ccccc2c1O
GI50 (A498): 2.52 µM (inactive) | GI50 (A549): 1.77 µM (inactive) | GI50 (BT-549): 2.83 µM (inactive) | GI50 (CAKI-1): 3.95 µM (inactive) | GI50 (DU-145): 3.89 µM (inactive) | GI50 (HCT-116): 2.85 µM (inactive) | GI50 (HCT-15): 2.26 µM | GI50 (HT-29): 3.67 µM (inactive) | GI50 (IGROV-1): 2.9 µM (inactive) | GI50 (MOLT-4): 2.32 µM (inactive) | GI50 (NCI-H23): 1.9 µM (inactive) | GI50 (NCI/ADR-RES): 2.72 µM (inactive) | GI50 (OVCAR-3): 3.37 µM (inactive) | GI50 (OVCAR-4): 19.4 µM (inactive) | GI50 (OVCAR-8): 3.86 µM (inactive) | GI50 (SF-268): 3.87 µM (inactive) | GI50 (SF-295): 2.05 µM (inactive) | GI50 (SK-OV-3): 2.75 µM (inactive) | GI50 (SN12C): 3.39 µM (inactive)

Cn1c(COC(=O)Nc2ccccc2)c(COC(=O)Nc2ccccc2)c2ccc3cc(Cl)c(Cl)cc3c21
GI50 (A498): 1.65 µM (inactive) | GI50 (A549): 23.3 µM (inactive) | GI50 (BT-549): 2.58 µM (inactive) | GI50 (CAKI-1): 1.06 µM (active) | GI50 (DU-145): 11.3 µM (inactive) | GI50 (HCT-116): 9.66 µM (inactive) | GI50 (HCT-15): 4.4 µM | GI50 (HOP-92): 2.1 µM (inactive) | GI50 (HT-29): 8.02 µM (inactive) | GI50 (IGROV-1): 8.95 µM (inactive) | GI50 (MOLT-4): 1.1 µM (active) | GI50 (NCI-H23): 2.63 µM (inactive) | GI50 (NCI/ADR-RES): 16.4 µM (inactive) | GI50 (OVCAR-3): 11 µM (inactive) | GI50 (OVCAR-8): 6.73 µM (inactive) | GI50 (SF-268): 3.57 µM (inactive) | GI50 (SF-295): 18.7 µM (inactive) | GI50 (SK-OV-3): 20.9 µM (inactive) | GI50 (SN12C): 4.07 µM (inactive)

CO[C@@H](c1ccccc1)[C@H](O)[C@@](O)(c1ccccc1)P(=O)(OC)OC
GI50 (A498): > 100 µM (inactive) | GI50 (A549): > 100 µM (inactive) | GI50 (BT-549): > 100 µM (inactive) | GI50 (CAKI-1): 34.7 µM (inactive) | GI50 (DU-145): > 100 µM (inactive) | GI50 (HCT-116): > 100 µM (inactive) | GI50 (HCT-15): > 100 µM | GI50 (HOP-92): 29.8 µM (inactive) | GI50 (HT-29): > 100 µM (inactive) | GI50 (IGROV-1): 48.2 µM (inactive) | GI50 (MOLT-4): > 100 µM (inactive) | GI50 (NCI-H23): > 100 µM (inactive) | GI50 (NCI/ADR-RES): > 100 µM (inactive) | GI50 (OVCAR-3): > 100 µM (inactive) | GI50 (OVCAR-8): > 100 µM (inactive) | GI50 (SF-268): > 100 µM (inactive) | GI50 (SF-295): > 100 µM (inactive) | GI50 (SK-OV-3): > 100 µM (inactive) | GI50 (SN12C): > 100 µM (inactive)

C[C@@H]1OC(=O)C[C@H]2CC(=O)N(CCc3cn(S(=O)(=O)C(F)(F)F)c4ccccc34)C[C@@H]21
GI50 (A498): > 100 µM (inactive) | GI50 (A549): > 100 µM (inactive) | GI50 (BT-549): > 100 µM (inactive) | GI50 (CAKI-1): > 100 µM (inactive) | GI50 (DU-145): > 100 µM (inactive) | GI50 (HCT-116): > 100 µM (inactive) | GI50 (HCT-15): > 100 µM | GI50 (HOP-92): > 100 µM (inactive) | GI50 (HT-29): > 100 µM (inactive) | GI50 (IGROV-1): > 100 µM (inactive) | GI50 (MOLT-4): > 100 µM (inactive) | GI50 (NCI-H23): > 100 µM (inactive) | GI50 (NCI/ADR-RES): > 100 µM (inactive) | GI50 (OVCAR-3): > 100 µM (inactive) | GI50 (OVCAR-4): > 100 µM (inactive) | GI50 (OVCAR-8): > 100 µM (inactive) | GI50 (SF-268): > 100 µM (inactive) | GI50 (SF-295): > 100 µM (inactive) | GI50 (SK-OV-3): > 100 µM (inactive)

CN(C)Nc1cc(=O)[nH]c(=O)[nH]1
GI50 (A498): > 100 µM (inactive) | GI50 (A549): > 100 µM (inactive) | GI50 (BT-549): > 100 µM (inactive) | GI50 (DU-145): > 100 µM (inactive) | GI50 (HCT-116): > 100 µM (inactive) | GI50 (HCT-15): > 100 µM | GI50 (HOP-92): > 100 µM (inactive) | GI50 (HT-29): > 100 µM (inactive) | GI50 (IGROV-1): > 100 µM (inactive) | GI50 (MOLT-4): > 100 µM (inactive) | GI50 (NCI/ADR-RES): > 100 µM (inactive) | GI50 (OVCAR-3): > 100 µM (inactive) | GI50 (OVCAR-4): > 100 µM (inactive) | GI50 (OVCAR-8): > 100 µM (inactive) | GI50 (SF-268): > 100 µM (inactive) | GI50 (SF-295): > 100 µM (inactive) | GI50 (SN12C): > 100 µM (inactive)
